Measured values as given in PubChem BioAssay (NCI).
Several values for one entry are separate records, joined by “and”; a condition that tells them apart may be missing. Equal values may be shown once.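 How tested: cells in 96-well plates exposed to compound for 48 hours at five concentrations. GI50 marks 50% less growth. The concentration for full growth arrest is given as TGI.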

Experiments:
Test in all cases: growth of human tumour cells (NCI), 48 h
HCT-15 colon = system: HCT-15 colon
NCI/ADR-RES ovarian = system: NCI/ADR-RES ovarian
RXF 393 renal = system: RXF 393 renal
HCT-116 colon = system: HCT-116 colon
COLO 205 colon = system: COLO 205 colon
UACC-62 melanoma = system: UACC-62 melanoma
TK-10 renal = system: TK-10 renal
NCI-H23 lung = system: NCI-H23 lung
SF-268 CNS = system: SF-268 CNS
OVCAR-5 ovarian = system: OVCAR-5 ovarian

SMILES	GI50 (HCT-15 colon)	TGI (HCT-15 colon)	GI50 (NCI/ADR-RES ovarian)	TGI (NCI/ADR-RES ovarian)	GI50 (RXF 393 renal)	TGI (RXF 393 renal)	GI50 (HCT-116 colon)	TGI (HCT-116 colon)	GI50 (COLO 205 colon)	TGI (COLO 205 colon)	GI50 (UACC-62 melanoma)	TGI (UACC-62 melanoma)	GI50 (TK-10 renal)	TGI (TK-10 renal)	GI50 (NCI-H23 lung)	TGI (NCI-H23 lung)	GI50 (SF-268 CNS)	TGI (SF-268 CNS)	GI50 (OVCAR-5 ovarian)	TGI (OVCAR-5 ovarian)
Clc1cccc(CNc2c3ccccc3nc3ccccc23)c1	1.88 µM	4.6 µM	1.8 µM	4.97 µM	1.35 µM	2.85 µM	1.35 µM	3.41 µM	1.54 µM	3.88 µM	1.87 µM	3.98 µM	2.95 µM	8.99 µM	1.73 µM	4.93 µM	2.54 µM	7.88 µM	2.06 µM	6.54 µM
COc1cc(-c2nc3ccccc3o2)cc(CN2CCCCC2)c1O	1.05 µM	26 µM	5.79 µM	76.4 µM	17.1 µM	52 µM	4.27 µM	35.4 µM	2.38 µM	4.6 µM	1.63 µM	3.2 µM	31.2 µM	> 85.8 µM	1.54 µM	5.26 µM	5.12 µM	> 100 µM	5.31 µM	20.7 µM
O=C(NCCOCCOCCOCCNC(=O)c1cc2c(o1)C(=O)c1ccccc1C2=O)NC12CC3CC(CC(C3)C1)C2	1.58 µM	3.68 µM	2.96 µM	10.1 µM	1.58 µM	3.05 µM	2.4 µM	8.95 µM	1.96 µM	3.97 µM	0.571 µM	1.92 µM	3.68 µM	7.24 µM	0.234 µM	1.97 µM	2.29 µM	6.22 µM	1.83 µM	3.28 µM
CCCCCCCCCCCCN=C(N)c1ccc(N2CCN(c3ccc(C(N)=NCCCCCCCCCCCC)cc3)CC2)cc1	35 µM	> 50 µM	33.3 µM	> 50 µM	9.54 µM	37.6 µM	6.9 µM	13.8 µM	11.6 µM	24.4 µM	10.5 µM	21.5 µM	13.2 µM	> 50 µM	6.2 µM	15.1 µM	9.84 µM	21.1 µM	7.16 µM	14.3 µM
COc1ccc(-c2cc(-c3ccc(Cl)cc3)nc(NCCCCNc3ccnc4cc(Cl)ccc34)n2)cc1	1.69 µM	3.71 µM	1.6 µM	3.37 µM	1.65 µM	5.2 µM	1.5 µM	2.92 µM	1.86 µM	4.53 µM	17.8 µM	35.8 µM	3.95 µM	13.3 µM	2.61 µM	9.3 µM	2.39 µM	6.31 µM	15.4 µM	29.5 µM
CC1=C(C(=O)Nc2ccc(F)c(Cl)c2)C(c2cccc(Oc3ccccc3)c2)NC(=S)N1 (stereo not given)	11.5 µM	33.2 µM	27.8 µM	> 50 µM	6.79 µM	15.6 µM	14.6 µM	46.8 µM	17.9 µM	> 50 µM	10 µM	20.2 µM	16.3 µM	> 50 µM	19.3 µM	39.4 µM	10.5 µM	24.2 µM	19.2 µM	34.8 µM
c1ccc(Oc2ccc(Nc3ncc(-c4ccccc4)o3)cc2)cc1	> 25 µM	> 25 µM	> 25 µM	> 25 µM	> 25 µM	> 25 µM	> 25 µM	> 25 µM	> 25 µM	> 25 µM	> 25 µM	> 25 µM	> 25 µM	> 25 µM	> 25 µM	> 25 µM	> 25 µM	> 25 µM	> 25 µM	> 25 µM
COc1ccccc1[As]=[As]c1ccccc1OC (stereo not given)	0.0288 µM	0.118 µM	0.0763 µM	0.306 µM	0.0257 µM	0.0644 µM	0.0245 µM	0.0641 µM	0.0209 µM	0.0475 µM	0.0663 µM	0.224 µM	0.0401 µM	0.141 µM	0.0653 µM	0.204 µM	0.036 µM	0.14 µM	0.0627 µM	0.181 µM
CCC(=O)N1C/C(=C/c2ccc(Br)cc2)C(=O)/C(=C/c2ccc(Br)cc2)C1	0.295 µM	1.31 µM	1.36 µM	32.8 µM	0.22 µM	0.522 µM	< 0.0417 µM	0.311 µM	0.611 µM	1.74 µM	0.724 µM	2.06 µM	0.357 µM	1.28 µM	1.31 µM	3.46 µM	0.902 µM	3.06 µM	1.32 µM	3.22 µM
Cn1cc(C2=C(c3cn(CCCN)c4ccccc34)C(=O)NC2=O)c2ccccc21	5.14 µM	> 25 µM	10.8 µM	> 25 µM	3.4 µM	7.42 µM	3.48 µM	10.1 µM	3.27 µM	7.06 µM	4.35 µM	8.05 µM	4.86 µM	12.8 µM	5.17 µM	14.2 µM	5.33 µM	12.8 µM	9.52 µM	> 25 µM
Cc1nc2sc3c(N)ncnc3c2c(C)c1C	> 25 µM	> 25 µM	> 25 µM	> 25 µM	> 25 µM	> 25 µM	> 25 µM	> 25 µM	> 25 µM	> 25 µM	> 25 µM	> 25 µM	> 25 µM	> 25 µM	> 25 µM	> 25 µM	> 25 µM	> 25 µM	> 25 µM	> 25 µM
O=C1Cc2cc(CCn3cncn3)c(Cl)cc2N1	9.59 µM	> 100 µM	5.85 µM	> 100 µM	7.48 µM	> 100 µM	32 µM	> 100 µM	23.3 µM	> 100 µM	20.7 µM	> 100 µM	> 100 µM	> 100 µM	> 100 µM	> 100 µM	59.6 µM	> 100 µM	> 100 µM	> 100 µM
Oc1[nH]c2ccccc2c1/C=c1/ccc2c(c1)N=C(c1ccc(C(F)(F)F)cc1)N=2	4.09 µM	20.3 µM	3.98 µM	13.1 µM	2.21 µM	4.32 µM	1.37 µM	12.3 µM	9.89 µM	22.1 µM	2.62 µM	15.8 µM	10.4 µM	22.2 µM	3.39 µM	15.7 µM	3.46 µM	11.9 µM	10.1 µM	22 µM
COc1ccc2c(O)c(/C=C3\N=Nc4ncccc43)oc2c1C[C@@H]1CCNC[C@H]1F	0.234 µM	1.87 µM	0.915 µM	4.31 µM	0.253 µM	0.984 µM	0.118 µM	1.21 µM	0.323 µM	1.43 µM	1.32 µM	3.79 µM	2.11 µM	5.91 µM	0.861 µM	3.51 µM	0.294 µM	1.39 µM	1.02 µM	8.29 µM
CCOc1ccc(C(C[N+](=O)[O-])Sc2ccccc2N)cc1 (stereo not given)	2.01 µM	4.75 µM	14.3 µM	28.1 µM	2.1 µM	4.6 µM	1.7 µM	3.36 µM	4.74 µM	16.8 µM	10 µM	21.6 µM	15.4 µM	29.2 µM	8.71 µM	21.6 µM	4.76 µM	18.3 µM	11.2 µM	23.2 µM
COc1ccc2c(c1)/C(=C\c1c(-c3cc(OC)ccc3OC)nc3sccn13)C(=O)N2	7.19 µM and 5.37 µM	18.7 µM	4.83 µM and 1.7 µM	3.39 µM	1.77 µM	3.93 µM	1.42 µM	3.48 µM	1.51 µM	2.84 µM	5.42 µM and 12.4 µM	28.5 µM	1.76 µM	3.14 µM	1.47 µM	2.83 µM	2.08 µM	4.32 µM	6.65 µM and 1.73 µM	3.1 µM
COc1ccccc1/C=C\C(=O)C1COCN1 (stereo not given)		35.8 µM		52.3 µM		81.8 µM		> 100 µM		33.2 µM		31.9 µM		50.8 µM		> 100 µM		64.4 µM		67.4 µM
CNC(=O)c1c(F)cccc1Nc1nc(Nc2cc3c(cc2OC)CCN3C(=O)CN(C)C)nc2[nH]ccc12	3.08 µM	19 µM	9.69 µM	> 61.5 µM	1.8 µM	3.6 µM	1.54 µM	3.33 µM	0.151 µM	3.48 µM	4.66 µM	9.79 µM	4.76 µM	11.8 µM	13.3 µM	34 µM	5.44 µM	15.2 µM	4.88 µM	26.3 µM
O=C(Nc1cc(Cl)cc(Cl)c1)c1cccc(NC2=C(Cl)C(=O)N(Cc3ccccc3)C2=O)c1	24 µM	> 100 µM	30.3 µM	> 100 µM	18.9 µM	> 100 µM	12 µM	> 100 µM	31.5 µM	> 100 µM	29.2 µM	> 100 µM	31.8 µM	> 100 µM	27.8 µM	> 100 µM	42.7 µM	> 100 µM	> 100 µM	> 100 µM
CCCCCCCCCCNCCSS(=O)(=O)O	3.97 µM	17 µM	2.11 µM	4.37 µM	2.21 µM	3.91 µM	2.01 µM	3.85 µM	13 µM	27.2 µM	1.42 µM	3 µM	5.31 µM	17.7 µM	1.9 µM	4.49 µM	1.22 µM	2.52 µM	2.27 µM	4.24 µM
